# Earlier results as cited in patent US20070059360A1, “WATER-DISPERSIBLE ANTI-RETROVIRAL PHARMACEUTICAL COMPOSITIONS” (priority 2005, published 2007).
# Biological target: HIV reverse transcriptase (Human immunodeficiency virus type 1 group M subtype B, UniProt P04585)
# Conditions: in vitro; reported by S. A. Riddler, et al
smiles,measurement,value
"Cc1cn([C@H]2C=C[C@@H](CO)O2)c(=O)[nH]c1=O [Stavudine, 2′,3′-didehydro-3′-deoxythymidine]",Inhibition of HIV reverse transcriptase,potent inhibitor
